From patent US20090023733A1, “Piperidine Derivatives, Their Process for Preparation, Their Use as Therapeutic Agents and Pharmaceutical Compositions Containing Them” (priority 2006, published 2009) come the findings set out here.

pKi: −log10 of the molar value. Bounds are passed on as bounds.

As usually defined, the pKi is −log10 of the Ki, conventionally taken in molar units. As usually defined, the CLint scaled is the capacity of the preparation to metabolise the compound, expressed as a volume cleared per time.

The target of data set [1] is T1, human recombinant CCR3 receptors (Homo sapiens, UniProt P51677).
T1 construct: expressed in transfected cells
T1 sequence (P51677 1-355): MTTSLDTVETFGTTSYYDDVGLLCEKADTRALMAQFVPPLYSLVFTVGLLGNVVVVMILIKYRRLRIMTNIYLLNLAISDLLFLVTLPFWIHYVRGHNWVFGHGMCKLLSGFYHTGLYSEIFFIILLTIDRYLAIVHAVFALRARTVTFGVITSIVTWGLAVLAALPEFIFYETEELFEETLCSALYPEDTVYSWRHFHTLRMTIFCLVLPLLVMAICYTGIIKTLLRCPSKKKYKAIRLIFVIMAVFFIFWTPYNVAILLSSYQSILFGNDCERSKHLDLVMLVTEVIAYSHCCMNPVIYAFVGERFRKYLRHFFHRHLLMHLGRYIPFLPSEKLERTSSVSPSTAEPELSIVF
Description: Compound affinity at human recombinant CCR3 receptors by competition of [3H]-4-(2,4-dichloro-3-methylphenoxy)-1'-[4-(methylsulfonyl)benzoyl]-1,4'-bipiperidine, CHO-K1 cell membranes. It counts as binding. The note with it: mean pKi (Cheng-Prussof correction of pIC50), minimum of 2 experiments, recombinant human CCR3, 2 nM radioligand, 2 h at 37° C. As for the experimental part: Determination of Compound Affinity at Human Recombinant CCR3 Receptors Assessed By Competition Of [^3H]-4-(2,4-dichloro-3-methylphenoxy)-1′-[4-(methylsulfonyl)benzoyl]-1,4′-bipiperidine for CHO—K1 Cell Membranes In Vitro
Membranes, prepared from CHO—K1 cells stably expressing recombinant human CCR3, suspended in assay buffer (50 mM Tris-Base, pH 7.4; containing sodium chloride (100 mM) and magnesium chloride (2 mM)) were incubated in the presence of 2 nM [^3H]-4-(2,4-dichloro-3-methylphenoxy)-1′-[4-(methylsulfonyl)benzoyl]-1,4′-bipiperidine, along with vehicle (1% (v/v) DMSO), 4-(4-chloro-3-methylphenoxy)-1′-[2-(methylsulfonyl)benzoyl]-1,4′-bipiperidine (to define non-specific binding) or test compound for 2 h at 37° C. in round bottomed 96-well plates. The plates were then filtered onto GF/B filter plates, pre-soaked for 1 hour in plate-coating solution (0.3% (w/v) polyethylenimine, 0.2% (w/v) BSA in de-ionised water), using a 96-well plate Tomtec cell harvester. Four washes (250 μL) with wash buffer (50 mM Tris-Base, pH 7.4 containing sodium chloride (500 mM) and magnesium chloride (2 mM)) were performed at 4° C. to remove unbound radioactivity. Plates were dried and MicroScint-O (50 μL) was added to each well. The plates were sealed (TopSeal A) and filter-bound radioactivity was measured with a scintillation counter (TopCount, Packard BioScience) using a 1 minute counting protocol.
Specific binding was determined from values of the control wells minus the values for the NSB wells for each assay plate. pIC50 values were calculated using a four parameter logistic fit (where pIC50 is defined as the negative logarithm of the concentration of compound required for 50% reduction in specific [^3H]-4-(2,4-dichloro-3-methylphenoxy)-1′-[4-(methylsulfonyl)benzoyl]-1,4′-bipiperidine binding). Data were presented as mean pKi values (calculated by applying a Cheng-Prussof correction to pIC50 values) from a minimum of 2 separate experiments.

A short description of data set [2]: Determination of intrinsic clearance with human liver microsomes. Format: in vitro ADME. The following applies: human liver microsomes 1 mg protein/ml, NADPH, pH 7.4; CLint=ln 2/T1/2. As for the experimental part:
Determination of Intrinsic Clearance with Human Liver Microsomes
Frozen human liver microsomes (BD Gentest, Oxford) were defrosted and were then diluted with 0.1 M pH 7.4 phosphate buffer at 4° C. to 1 mg protein/ml. 0.45 mL aliquots of the microsome suspension were dispensed into flat-bottomed vials (1 per compound) and were allowed to come to room temperature (5 min). During the warming time, 5 μL of solution of each test compound (typically 100 μM in DMSO) was dispensed into separate vials resulting in a final DMSO concentration of 1%. 50 μL of a 10 mM solution of NADPH in phosphate buffer ([…] pH 7.4, 37° C.) was added to each vial to initiate metabolism.
50 μL Aliquots of the mixtures were removed at measured intervals and were immediately quenched by addition to 100 μL of methanol cooled in ice. The quenched samples were kept cold (at −20° C. or less) for at least 1 h and were then centrifuged to remove protein.
The supernatant solution was analysed using quantitative LCMS for the presence of test compound. From the concentrations of test compound at different time points a T1/2 may be calculated which may be converted to an intrinsic clearance using the equation: CLint=ln 2/T1/2.
(Liver microsomes are vesicles of endoplasmic reticulum, rich in cytochrome P450 enzymes.)

For `O=C(CSc1ccccc1C(=O)O)NC1CCN(Cc2ccc(Cl)c(Cl)c2)CC1` [Example 1, 2-[(2-{[1-(3,4-Dichlorobenzyl)piperidin-4-yl]amino}-2-oxoethyl)thio]benzoic acid], the pKi in data set [1] is 6.60. This compound also gave a CLint scaled at 1 µM in data set [2] of less than 0.18 L/h/kg.
The matching figures for `O=C(CSc1cccc(C(=O)O)c1)NC1CCN(Cc2ccc(Cl)c(Cl)c2)CC1` [Example 4, 3-[(2-{[1-(3,4-Dichlorobenzyl)piperidin-4-yl]amino}-2-oxoethyl)thio]benzoic acid]: 7.90 and less than 0.18 L/h/kg.
The matching figures for `O=C(CSc1ccc(C(=O)O)cc1)NC1CCN(Cc2ccc(Cl)c(Cl)c2)CC1` [Example 7, 4-[(2-{[1-(3,4-Dichlorobenzyl)piperidin-4-yl]amino}-2-oxoethyl)thio]benzoic acid]: 8.20 and less than 0.18 L/h/kg.
Turning to `O=C(CSc1ccc(C(=O)O)cc1CN1CCOCC1)NC1CCN(Cc2ccc(Cl)c(Cl)c2)CC1` [Example 18, 4-[(2-{[1-(3,4-Dichlorobenzyl)piperidin-4-yl]amino}-2-oxoethyl)thio]-3-(morpholin-4-ylmethyl)benzoic acid], in data set [1], the negative-log Ki (pKi) is 7.90. In data set [2], this compound showed a CLint scaled at 1 µM of 1.8 L/h/kg.
